The source of these data is PMC7988117, “OMN6 a novel bioengineered peptide for the treatment of multidrug resistant Gram negative bacteria” (Scientific Reports, 2021).

Like-named read-outs stand apart in the source and are kept apart here. Where only a bound is given, the exact number is not on record here.

The test system of one test is A. baumannii BAA-1793. The conditions noted are these: determined by ATCC according to CLSI guidelines, ref ATCC; cited from earlier work. The source says: Supplement 41598_2021_86155_MOESM1_ESM.docx, table 3: Table S3. Supplementary information about the resistance pattern of the bacterial strain A. baumannii BAA-1793 used in the Minimum Inhibitory Concentration study presented in Table 1.

Another test has as its system E. faecium BAA-2319. Conditions: determined by ATCC according to CLSI guidelines, ref ATCC; cited from earlier work. The source says:
Supplement 41598_2021_86155_MOESM1_ESM.docx, table 2: Table S2. Supplementary information about the resistance pattern of the bacterial strain E. faecium BAA-2319 used in the Minimum Inhibitory Concentration study presented in Table 1.

For another test, the system named is Staphylococcus aureus. The test can be described thus: VITEK 2 antimicrobial sensitivity characterization. Type of test: cell-based. Conditions: VITEK 2 system, CLSI ranges. Here is the method: (§1) This experiment was conducted by Omnix Medical, by JMI Laboratories (North Liberty, IA, USA) and by Aptuit (Verona) S.r.l. (Italy), an Evotec Company. All studies were performed according to Clinical and Laboratory Standards Institute guidelines[30] for the application of the broth microdilution method. Reference strains from American Type Culture Collection (ATCC) and clinical isolates from the Evotec EvostrAIn and the JMI Laboratories SENTRY surveillance program culture collections (Acinetobacter baumannii: ACC 00445, ACC 00527, ACC 00535, ATCC 17978, ATCC 19606, ATCC BAA-1793, ACC 01076, ACC 01077, NCTC 13420, JMI #1088100 and JMI #1001007; Klebsiella pneumoniae: ATCC 43816 and ATCC BAA-1705; Escherichia coli: ACC 01001 and ATCC 25922; Staphylococcus aureus: ATCC 29213, ATCC BAA-44 and ATCC 33591; Bacillus cereus: ATCC 14579; Enterococcus faecalis: ATCC 29212; Enterococcus faecium: ATCC BAA-2319) were used. The antimicrobial activity of OMN6 was determined by 12 serial two-fold dilutions in water of the 100-fold highest compound solution; 1 µL of each well was transferred into 96 microtiter plates (final concentration: 256–0.12 µg/mL). In most strains, same procedure was used to determine the colistin antimicrobial activity (final concentration: 32–0.015 µg/mL). Bacterial strains were sub-cultured on the agar plates and incubated for 18–24 h at 35 ± 2 °C in ambient air. Following incubation, the inoculum was prepared from isolated colonies and adjusted to 0.5 McFarland turbidity standard (1 to 2 × 10^8 colony-forming units/mL) in 0.9% saline. Bacterial suspension was then diluted 1:200 in Muller-Hinton broth (from BD; Becton, Dickinson and Company, Franklin Lakes, NJ, USA) and within 15 min 100 µL/well were dispensed. Growth-control wells and sterility-check wells (uninoculated well) were present in each plate. Plates were incubated for 18–24 h at 35 ± 2 °C in ambient air. […] The antimicrobial activity to other antibiotics on most bacterial strains was determined by Evotec using the antimicrobial sensitive test from the VITEK 2 automated microbiology system (bioMérieux SA, Marcy l'Etoile, France; data presented in Table S1), or by ATCC according to CLSI (Clinical and Laboratory Standards Institute) guidelines[30]
Table S1. Supplementary information about the resistance pattern of 14 bacterial strains used in the Minimum Inhibitory Concentration study presented in Table 1. The resistance pattern of the different bacterial isolates was characterized by broth microdilution studies (for colistin) or with the VITEK 2 system (for the other antibiotics).

The test system of the next test is Acinetobacter baumannii. The conditions noted are these: Difco Muller Hinton Broth, data not shown. On the procedure: as §1
Test [1] deals with Acinetobacter baumannii clinical isolates. The test can be described thus: Time-kill studies. Type of test: cell-based. Conditions: Difco Muller Hinton Broth. Here is the method:
Time-kill experiments were performed by JMI Laboratories (North Liberty, IA, USA) as described in chapter 5.14 of the Clinical Microbiology Procedures Handbook[32] and the CLSI M26-A[33] document. Two Acinetobacter baumannii clinical isolates (JMI colistin-sensitive strain #1088100 and colistin-resistant strain #1001007) were used for this study. MIC values that were determined in Difco Muller Hinton Broth (BD) for OMN6 and colistin as described above, were used as the baseline values during time-kill testing. In the time-kill experiments, OMN6 and colistin were tested in Difco Muller Hinton Broth. The time-kill cultures were sampled at 0, 2, 4, 8, and 24 h after compound addition. The number of CFU/mL in each culture was measured by plating 100 μL of serial dilutions onto blood agar plates. Colonies were counted after 48 h of growth at 35 °C. Time-kill curves were generated by plotting CFU/mL as log10 values over time. The limit of detection was 10 CFU/mL. Bactericidal activity was defined as a ≥ 99.9% reduction (i.e., a ≥ 3 log10 decrease) in the number of input bacterial cells at any arbitrary timepoint.

As to `CCN1CCN(C(=O)N[C@@H](C(=O)N[C@@H]2C(=O)N3[C@@H]2SC(C)(C)[C@@H]3C(=O)O)c2ccccc2)C(=O)C1=O` [Piperacillin], the Resistance pattern result in the test with A. baumannii BAA-1793 is “R”.
In the case of `CO/N=C(\C(=O)N[C@@H]1C(=O)N2C(C(=O)[O-])=C(C[N+]3(C)CCCC3)CS[C@H]12)c1csc(N)n1` [Cefepime], the Resistance pattern entry with A. baumannii BAA-1793 is “R”.
On to `CC1(C)S[C@@H]2[C@H](NC(=O)Cc3ccccc3)C(=O)N2[C@H]1C(=O)O` [Benzylpenicillin], for which, in the test with E. faecium BAA-2319, the Resistance pattern result was “R”.
In the case of `NCC[C@H](O)C(=O)N[C@@H]1C[C@H](N)[C@@H](O[C@H]2O[C@H](CN)[C@@H](O)[C@H](O)[C@H]2O)[C@H](O)[C@H]1O[C@H]1O[C@H](CO)[C@@H](O)[C@H](N)[C@H]1O` [Amikacin], the Resistance pattern result in the test with A. baumannii BAA-1793 was “S”.
Regarding `CO/N=C(\C(=O)N[C@@H]1C(=O)N2C(C(=O)OC(C)OC(C)=O)=C(COC(N)=O)CS[C@H]12)c1ccco1` (stereo partly shown) [Cefuroxime Axetil], the Resistance pattern result with A. baumannii BAA-1793 is on record as “R”.
`CC1(C)S[C@@H]2[C@H](NC(=O)[C@H](N)c3ccccc3)C(=O)N2[C@H]1C(=O)O` [Ampicillin]: the Resistance pattern entry in the test on E. faecium BAA-2319 and in the test with A. baumannii BAA-1793 was “R” throughout.
Turning to `CO[C@@]1(NC(=O)C2SC(=C(C(N)=O)C(=O)O)S2)C(=O)N2C(C(=O)O)=C(CSc3nnnn3C)CS[C@@H]21` (stereo partly shown) [Cefotetan], the Resistance pattern entry in the test on A. baumannii BAA-1793 is “R”.
Take `CO/N=C(\C(=O)N[C@@H]1C(=O)N2C(C(=O)O)=C(COC(N)=O)CS[C@H]12)c1ccco1` [Cefuroxime]: the Resistance pattern result in the test with A. baumannii BAA-1793 is “R”.
In the case of `CC(=O)OCC1=C(C(=O)O)N2C(=O)[C@@H](NC(=O)Cc3cccs3)[C@H]2SC1` [Cefalotin], the Resistance pattern result in the test with A. baumannii BAA-1793 is recorded as “R”.
Regarding `Cc1onc(-c2ccccc2)c1C(=O)N[C@@H]1C(=O)N2[C@@H]1SC(C)(C)[C@@H]2C(=O)O` [OXA, oxacillin], the “VITEK characterization (resistance range)” value (“VITEK characterization” for short) is listed as “S” in the test with Staphylococcus aureus (S. aureus ATCC 29213) and “R” in the test with Staphylococcus aureus (S. aureus ATCC 33591).
Regarding `CCC[C@@H]1C[C@@H](C(=O)N[C@@H]([C@H]2O[C@H](SC)[C@H](O)[C@@H](O)[C@H]2O)[C@H](C)Cl)N(C)C1` [CLI, clindamycin], the “VITEK characterization” value in the test with Staphylococcus aureus (S. aureus ATCC 29213) is reported as “S”; with Staphylococcus aureus (S. aureus ATCC 33591), “R”.
On to `Cc1nnc(SCC2=C(C(=O)O)N3C(=O)[C@@H](NC(=O)Cn4cnnn4)[C@H]3SC2)s1` [Cefazolin], for which the Resistance pattern entry with A. baumannii BAA-1793 is recorded as “R”.
As for colistin, the MIC colistin value against Acinetobacter baumannii (A. baumannii JMI #1001007 colistin-resistant strain) is 8 mg/L; in the test on Acinetobacter baumannii (A. baumannii JMI #1088100 colistin-sensitive strain), 0.5 mg/L. Moreover, the “Concentrations with bactericidal effect” value in test [1] (colistin-resistant A. baumannii JMI #1001007, bactericidal = ≥ 3 log10 decrease) was in the range of 16 to 32 µg/mL. For the same molecule, the “Concentrations with bactericidal effect after 2 h of incubation” value in test [1] (colistin-sensitive A. baumannii JMI #1088100, bactericidal = ≥ 3 log10 decrease) was greater than 0.25 µg/mL. For the same molecule, the “Re-growth during the 24 h timeframe” value in test [1] (colistin-sensitive A. baumannii JMI #1088100, sampled 0, 2, 4, 8, 24 h) is “No re-growth”.
Consider `NC[C@H]1O[C@H](O[C@H]2[C@H](O)[C@@H](O[C@H]3O[C@H](CO)[C@@H](O)[C@H](N)[C@H]3O)[C@H](N)C[C@@H]2N)[C@H](N)C[C@@H]1O` [Tobramycin], for which the Resistance pattern result in the test with A. baumannii BAA-1793 is reported as “R”.
Take `CN(C)[C@@H]1C(O)=C(C(N)=O)C(=O)[C@@]2(O)C(O)=C3C(=O)c4c(O)cccc4[C@@](C)(O)[C@H]3C[C@@H]12` [TET, tetracycline]: the Resistance pattern result with E. faecium BAA-2319 and in the test on A. baumannii BAA-1793 was “R” throughout. The figures for the “VITEK characterization” value with Staphylococcus aureus (S. aureus ATCC 29213) and with Staphylococcus aureus (S. aureus ATCC 33591) were “S” and “R”, respectively.
For the molecule `C[C@H]1COc2c(N3CCN(C)CC3)c(F)cc3c(=O)c(C(=O)O)cn1c23` [Levofloxacin], the Resistance pattern result in the test on E. faecium BAA-2319 is listed as “R”.
Consider `C[C@@H](O)[C@H]1C(=O)N2C(C(=O)O)=C(S[C@@H]3CN[C@H](C(=O)N(C)C)C3)[C@H](C)[C@H]12` [Meropenem], for which the Resistance pattern result in the test with A. baumannii BAA-1793 was “R”.
As to `O=C1CN(/N=C/c2ccc([N+](=O)[O-])o2)C(=O)N1` [Nitrofurantoin], the Resistance pattern entry in the test on E. faecium BAA-2319 and in the test with A. baumannii BAA-1793 was “R” each time.
As to `CO[C@@]1(NC(=O)Cc2cccs2)C(=O)N2C(C(=O)O)=C(COC(N)=O)CS[C@@H]21` [Cefoxitin], in the test on A. baumannii BAA-1793, the Resistance pattern result is given as “R”.
As for `CO/N=C(\C(=O)N[C@@H]1C(=O)N2C(C(=O)O)=CCS[C@H]12)c1csc(N)n1` [Ceftizoxime], in the test on A. baumannii BAA-1793, the Resistance pattern entry is “R”.
For the molecule `CCn1cc(C(=O)O)c(=O)c2ccc(C)nc21` [Nalidixic Acid], the Resistance pattern entry in the test on A. baumannii BAA-1793 is on record as “R”.
As for `COc1c(N2C[C@@H]3CCCN[C@@H]3C2)c(F)cc2c(=O)c(C(=O)O)cn(C3CC3)c12` [Moxifloxacin], the Resistance pattern result in the test on A. baumannii BAA-1793 is “R”.
With `CO/N=C(\C(=O)N[C@@H]1C(=O)N2C(C(=O)O)=C(CSc3nc(=O)c(=O)[nH]n3C)CS[C@H]12)c1csc(N)n1` [Ceftriaxone], in the test with A. baumannii BAA-1793, the Resistance pattern entry is listed as “R”.
Take `CN[C@H](CC(C)C)C(=O)N[C@H]1C(=O)N[C@@H](CC(N)=O)C(=O)N[C@H]2C(=O)N[C@H]3C(=O)N[C@H](C(=O)N[C@H](C(=O)O)c4cc(O)cc(O)c4-c4cc3ccc4O)[C@H](O)c3ccc(c(Cl)c3)Oc3cc2cc(c3O[C@@H]2O[C@H](CO)[C@@H](O)[C@H](O)[C@H]2O[C@H]2C[C@](C)(N)[C@H](O)[C@H](C)O2)Oc2ccc(cc2Cl)[C@H]1O` [VAN, vancomycin]: the Resistance pattern result in the test on E. faecium BAA-2319 is recorded as “R”. Moreover, the “VITEK characterization” value in the test on Staphylococcus aureus (S. aureus ATCC 29213) and in the test with Staphylococcus aureus (S. aureus ATCC 33591) was “S” each time.
For `CN(C)c1cc(NC(=O)CNC(C)(C)C)c(O)c2c1C[C@H]1C[C@H]3[C@H](N(C)C)C(O)=C(C(N)=O)C(=O)[C@@]3(O)C(O)=C1C2=O` [Tigecycline], the Resistance pattern result with E. faecium BAA-2319 and in the test on A. baumannii BAA-1793 was “S” throughout.
Regarding `C[C@H]1[C@H](NC(=O)/C(=N\OC(C)(C)C(=O)O)c2csc(N)n2)C(=O)N1S(=O)(=O)O` [Aztreonam], the Resistance pattern entry in the test on A. baumannii BAA-1793 is listed as “R”.
In the case of `COCC1=C(C(=O)O)N2C(=O)[C@@H](NC(=O)/C(=N\OC)c3csc(N)n3)[C@H]2SC1` [Cefpodoxime], in the test with A. baumannii BAA-1793, the Resistance pattern result is recorded as “R”.
In the case of `CC[C@H]1OC(=O)[C@H](C)[C@@H](O[C@H]2C[C@@](C)(OC)[C@@H](O)[C@H](C)O2)[C@H](C)[C@@H](O[C@@H]2O[C@H](C)C[C@H](N(C)C)[C@H]2O)[C@](C)(O)C[C@@H](C)C(=O)[C@H](C)[C@@H](O)[C@]1(C)O` [ERY, erythromycin], the Resistance pattern entry in the test on E. faecium BAA-2319 was “R”. Moreover, the entries for the “VITEK characterization” value in the test on Staphylococcus aureus (S. aureus ATCC 29213) and in the test with Staphylococcus aureus (S. aureus ATCC 33591) were “S” and “R”, respectively.
As for `CCn1cc(C(=O)O)c(=O)c2cc(F)c(N3CCNCC3)cc21` [Norfloxacin], in the test on A. baumannii BAA-1793, the Resistance pattern entry was “R”.
Consider `CC1(C)S[C@@H]2[C@H](NC(=O)[C@H](C(=O)O)c3ccsc3)C(=O)N2[C@H]1C(=O)O` [Ticarcillin], for which, in the test on A. baumannii BAA-1793, the Resistance pattern result is “R”.
